{
  "source": "patent US9238797B2",
  "about": "“Method for production of pluripotent stem cell” (TAKARA BIO INC., priority 2008, dated 2016)",
  "format_in_all_cases": "cell-based",
  "key": {"[1]": {"tested_on": "human skin fibroblast derived from four different donors", "test": "Gene transfer efficiency, double positive cells, fibroblast of four donors, gene transfer two times (Example 12)", "conditions": "sixth day of culture, N=2", "procedure": "Gene transfer efficiencies using a plurality of retrovirus vectors with Retronectin or polybrene were further compared. Introduction of a fluorescent protein gene was carried out targeting human skin fibroblast derived from four different donors, using a method of performing gene transfer two times as in the pluripotent stem cell inducing experiment. In the present Example, the cell A indicates derived from a person, the cell B indicates derived from a person, the cell C indicates derived from a person, and the cell D indicates derived from a person (all manufactured by Lonza).\n(§1) According to the same manner as that of Example 8-(1), immobilization of Retronectin on a culture plate was carried out.\nAccording to the same manner as that of Example 8-(2), gene transfer was carried out (day 0 of culturing), provided that a group in which a virus solution was diluted 10-fold, 100-fold or 1000-fold with 10F-DMEM was set.\nAccording to the same manner as that of Example 8-(3), a gene transfer efficiency was measured on the sixth day of culture. […] In addition, the number in the Table indicates an average value of N=2."}, "[2]": {"tested_on": "human skin fibroblast", "test": "AcGFP1 positive cell rate by flow cytometer (Example 19)", "procedure": "(§2) As an index showing an existence rate of a cell in which each retrovirus vector together with a gene encoding a nuclear reprogramming factor (iPS cell inducing factor) was inserted, gene transfer of an AcGFP1 gene was carried out, and a pluripotent stem cell (iPS cell) induction efficiency and an AcGFP1 positive cell rate, in a gene transfer method with Retronectin (Retronectin method) and a gene transfer method with polybrene (polybrene method) were compared. In addition, regarding partial condition, quantitation of a copy number of a retrovirus vector inserted into a genome was carried out, and comparison of a copy number and a pluripotent stem cell (iPS cell) induction efficiency was carried out.\nAccording to the same manner as that of Example 1-(1), immobilization of Retronectin on a culture plate was carried out, provided that, for a plate coated with Retronectin, a non-treatment 12-well plate was used, and each 1 mL of a Retronectin solution (25 μg/mL) was added to each well.\n(§3) The virus solutions prepared in Preparation Example 2 and Preparation Example 3 were mixed at an equal amount in a combination of Table 24, the solution in which the virus solution was diluted 10-fold and 100-fold with 10F-DMEM was prepared regarding the condition A, and the solution in which the virus solution was diluted 10-fold was prepared regarding the condition B, and these were used in gene transfer. Gene transfer was carried out according to the same manner as that of Example 7-(2), provided that 1 mL of PSB was used for washing a plate with PBS in the Retronectin method, the cell number used in infection by the Retronectin method and the polybrene method was 4×10^4 cells/well, and a retrovirus vector solution was 1 mL/well.\n(§4) According to the same manner as that of Example 10-(4), seeding of the gene-introduced cell on a feeder cell was carried out, provided that an AcGFP1 positive cell rate was measured with a flow cytometer using remaining cells which were not used in seeding on the feeder cell."}, "[3]": {"tested_on": "human adult skin fibroblasts", "test": "iPS cell colony induction, differences between donors, Retronectin or polybrene (Example 13)", "conditions": "virus 10-fold dilution, 25th day of culture, N=2", "procedure": "Regarding gene transfer with a retrovirus vector, a pluripotent stem cell was induced using Retronectin or polybrene, targeting four kinds of human adult skin fibroblasts as in Example 12, followed by comparison.\nAccording to the same manner as that of Example 1-(1), immobilization of Retronectin on a culture plate was carried out, provided that a non-treatment 12-well culture plate (manufactured by Becton, Dickinson and Company) was used, and each 1 mL of a Retronectin solution was added to each well.\nAccording to the same manner as that of Example 7-(2), gene transfer was carried out (day 0 of culturing), provided that a 12-well plate for culturing a cell (manufactured by Corning) was used in gene transfer with polybrene. A virus solution was added to each well by each 1 mL by diluting 10-fold a solution obtained by mixing equal amounts of three kinds of vectors, with 10F-DMEM.\nOn the sixth day of culture, according to the same manner as that of Example 5-(4), the gene-introduced cell was seeded on a feeder cell, and culturing was continued.\nAccording to the same manner as that of Example 10-(5), culturing on the feeder cell was carried out until the 25th day of culture.\nIn addition, the number in the Table indicates an average value of N=2."}, "[4]": {"tested_on": "human skin fibroblast", "test": "Gene transfer efficiency with two retrovirus vectors, double positive cells (Example 9)", "conditions": "5 days after gene transfer", "procedure": "as §1\nAccording to the same manner as that of Example 8-(2), gene transfer was carried out, provided that a group in which a virus solution is diluted 10-fold or 100-fold with 10F-DMEM was set.\nAccording to the same manner as that of Example 8-(3), a gene transfer efficiency was measured, provided that measurement with a flow cytometer was carried out 5 days after gene transfer operation."}, "[5]": {"tested_on": "human skin fibroblast", "test": "iPS cell colony induction, Retronectin or polybrene with changed virus amount (Example 10)", "conditions": "28th day of culture, N=2", "procedure": "Regarding gene transfer with a retrovirus vector, an amount of retrovirus was further changed in the condition under which each of Retronectin or polybrene was used, and induction of a pluripotent stem cell was carried out, followed by comparison. According to the same manner as that of Example 7-(2), gene transfer was carried out, provided that a group in which a virus solution is diluted 10-fold or 100-fold with 10F-DMEM was set. […] According to the same manner as that of Example 7-(4), the gene-introduced cell was seeded on a feeder cell, and culturing was continued, provided that the gene-introduced cell was seeded by each 2×10^4 cells. […] In addition, the number in the Table indicates an average value of N=2."}, "[6]": {"tested_on": "human skin fibroblast", "test": "iPS cell colony number, Retronectin method versus polybrene method (Example 19)", "conditions": "for iPS cell colony number: 28th day of culture", "procedure": "as §2, §3, §4\nAccording to the same manner as that of Example 10-(5), culturing on the feeder cell was carried out, provided that cells were recovered from a part of wells under the condition A on the 11th day of culture, genome extraction was carried out, and the inserted number of the retrovirus vector was quantitated."}, "[7]": {"conditions": "vector combination Condition A, virus 10-fold dilution"}, "[8]": {"conditions": "vector combination Condition A, virus 100-fold dilution"}, "[9]": {"conditions": "vector combination Condition B, virus 10-fold dilution"}},
  "data": [
    {"substance": "Retronectin: fragment of fibronectin having a heparin-II binding region (registered trademark, CH-296, TAKARA BIO INC.)", "values": [
      {"measurement": "Ratio of double positive cells", "setting": "[1]; Cell A, Virus 10-fold dilution", "result": 55.9},
      {"measurement": "Ratio of double positive cells", "setting": "[1]; Cell A, Virus 100-fold dilution", "result": 61.6},
      {"measurement": "Ratio of double positive cells", "setting": "[1]; Cell A, Virus 1000-fold dilution", "result": 51.9},
      {"measurement": "Ratio of double positive cells", "setting": "[1]; Cell A, Virus stock solution", "result": 42.5},
      {"measurement": "Ratio of double positive cells", "setting": "[1]; Cell B, Virus 10-fold dilution", "result": 49.7},
      {"measurement": "Ratio of double positive cells", "setting": "[1]; Cell B, Virus 100-fold dilution", "result": 57.7},
      {"measurement": "Ratio of double positive cells", "setting": "[1]; Cell B, Virus 1000-fold dilution", "result": 48.7},
      {"measurement": "Ratio of double positive cells", "setting": "[1]; Cell B, Virus stock solution", "result": 35.9},
      {"measurement": "Ratio of double positive cells", "setting": "[1]; Cell C, Virus 10-fold dilution", "result": 54.6},
      {"measurement": "Ratio of double positive cells", "setting": "[1]; Cell C, Virus 100-fold dilution", "result": 60.2},
      {"measurement": "Ratio of double positive cells", "setting": "[1]; Cell C, Virus 1000-fold dilution", "result": 46.4},
      {"measurement": "Ratio of double positive cells", "setting": "[1]; Cell C, Virus stock solution", "result": 42.1},
      {"measurement": "Ratio of double positive cells", "setting": "[1]; Cell D, Virus 10-fold dilution", "result": 54.2},
      {"measurement": "Ratio of double positive cells", "setting": "[1]; Cell D, Virus 100-fold dilution", "result": 63.2},
      {"measurement": "Ratio of double positive cells", "setting": "[1]; Cell D, Virus 1000-fold dilution", "result": 51.0},
      {"measurement": "Ratio of double positive cells", "setting": "[1]; Cell D, Virus stock solution", "result": 38.4},
      {"measurement": "AcGFP1 positive rate", "setting": "[2]; [7]", "result": 82.8, "unit": "%"},
      {"measurement": "AcGFP1 positive rate", "setting": "[2]; [8]", "result": 94.1, "unit": "%"},
      {"measurement": "AcGFP1 positive rate", "setting": "[2]; [9]", "result": 88, "unit": "%"},
      {"measurement": "Number of iPS cell colonies", "setting": "[3]; Cell A", "result": 81.0},
      {"measurement": "Number of iPS cell colonies", "setting": "[3]; Cell B", "result": 6.5},
      {"measurement": "Number of iPS cell colonies", "setting": "[3]; Cell C", "result": 114.0},
      {"measurement": "Number of iPS cell colonies", "setting": "[3]; Cell D", "result": 44.5},
      {"measurement": "Ratio of both positive cells", "setting": "[4]; virus 10-fold dilution", "result": 55.4},
      {"measurement": "Ratio of both positive cells", "setting": "[4]; virus 100-fold dilution", "result": 67.6},
      {"measurement": "Ratio of both positive cells", "setting": "[4]; virus solution undiluted", "result": 33.9},
      {"measurement": "Number of iPS cell colonies", "setting": "[5]; virus 10-fold dilution", "result": 12.0},
      {"measurement": "Number of iPS cell colonies", "setting": "[5]; virus 100-fold dilution", "result": 17.5},
      {"measurement": "Number of iPS cell colonies", "setting": "[5]; virus solution undiluted", "result": 6.5},
      {"measurement": "iPS cell colony number higher in the Retronectin method", "setting": "[6]; Condition A, Retronectin method 100-fold dilution versus polybrene method 10-fold dilution", "result": 9, "unit": "fold"},
      {"measurement": "difference in the iPS cell colony number, Retronectin method versus polybrene method", "setting": "[6]; Condition A, retrovirus 10-fold dilution", "result": "≥ 3", "unit": "fold"},
      {"measurement": "iPS cell colony number higher in the Retronectin method", "setting": "[6]; Condition B, versus polybrene method", "result": 2, "unit": "fold"},
      {"measurement": "iPS cell colony number", "setting": "[6]; [7]", "result": 10.0},
      {"measurement": "iPS cell colony number", "setting": "[6]; [8]", "result": 27.0},
      {"measurement": "iPS cell colony number", "setting": "[6]; [9]", "result": 11.5}
    ]}
  ]
}
